One may read the IC50 as the concentration that inhibits the measured activity by half.

For 21 compounds, IC50 results are on record in patent publication US8445510B2, “Fused bicyclic kinase inhibitors” (OSI Pharmaceuticals, LLC, priority 2011, dated 2013).

One test deals with T1, Aurora B (Homo sapiens, UniProt Q96GD4).
T1 construct: HT-29 cells grown in complete growth media
Description: Aurora B cell mechanistic assay (HT-29), phospho-Histone H3 (Ser10) ELISA. Type of test: cell-based. The note with it: HT-29 cell line; inhibition of phospho-Histone H3 (Ser10); at least duplicate experiments (italicized if single experiment); read-out: Aurora B mech IC50. The method, then:
The cellular activity of the compounds of the present invention against Aurora B may be determined by the following procedure. HT-29 cells grown in complete growth media (McCoy's 5A, 10% FCS, 1% L-glutamine) were plated into wells of a 96 well tissue culture plate (Falcon 3072) at a cell density of 4×10^4 cells/0.09 ml media/well. Cells were subsequently incubated overnight in a 5% CO2 humidified 37° C. incubator. The following day 10 μl of a 10× stock of test compound serially diluted in media was added to the cells and incubated for 1 h at 37° C. at which time Calyculin A (Cell Signaling #9902) was added at a concentration of 100 nM and cells incubated for an additional 30 minutes in a 5% CO2 humidified 37° C. incubator. Media was then aspirated and cells lysed using a Triton based lysis buffer. Lysates were transferred to a pre-coated anti-Histone H3 antibody coated plate supplied by Cell Signaling in their PathScan phospho-Histone H3 (Ser10) ELISA kit (#7155). After an overnight incubation with lysate the ELISA was continued following the manufacturer's instructions. Signal was measured on a Wallac Victor plate reader at 450 nm. DMSO control treated cells served as 100% signal and an Aurora B kinase inhibitor served as 100% inhibition. The percent inhibition of phospho-Histone H3 (Ser10) was expressed as % control. IC50 values were calculated from the percent control data using a standard four-parameter model.
The IC50 values of exemplary compounds of the present invention determined in a Aurora B cell mechanistic assay using the HT-29 cell line according to the procedures described herein in at least duplicate experiments are abbreviated as follows and are shown in Table 4: A, IC50≦0.05 μM; B, 0.05 μM<IC50≦0.2 μM; C, 0.2 μM<IC50≦1 μM; D, IC50>1 μM; ND, not determined. If only data from single experiments are available, the abbreviations are italicized. The Example # of Table 4 corresponds to the compound example number as illustrated in the Examples section.

Another test concerns Karpas-299 cells. Description: Karpas-299 cell proliferation assay (CellTiter-Glo). The format is cell-based. The note with it: Homo sapiens, 72 h; Karpas-299 cell line (NPM-ALK); 3 days incubation; at least duplicate experiments; read-out: Prolif. IC50.

T1 sequence (Q96GD4 whole entry): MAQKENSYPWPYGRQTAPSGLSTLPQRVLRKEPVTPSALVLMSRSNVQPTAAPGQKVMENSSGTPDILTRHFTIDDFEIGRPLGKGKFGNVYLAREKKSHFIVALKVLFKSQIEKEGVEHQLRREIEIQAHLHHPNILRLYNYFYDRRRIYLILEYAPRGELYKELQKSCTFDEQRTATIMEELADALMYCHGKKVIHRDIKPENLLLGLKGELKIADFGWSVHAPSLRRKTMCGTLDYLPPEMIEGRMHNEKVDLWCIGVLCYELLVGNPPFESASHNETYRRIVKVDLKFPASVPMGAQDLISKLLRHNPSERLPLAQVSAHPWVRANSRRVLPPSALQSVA

On to `[2H]C([2H])([2H])c1c(-c2cnc3[nH]cc([C@H](C)c4c(OC(F)F)ccc(F)c4Cl)c3c2)cnn1[C@H]1CC[C@H](O)CC1` [Example 85, trans-4-[4-(3-{(1S)-1-[2-Chloro-6-(difluoromethoxy)-3-fluorophenyl]ethyl}-1H-pyrrolo[2,3-b]pyridin-5-yl)-5-(^2H3)methyl-1H-pyrazol-1-yl]cyclohexanol], for which the figures for the IC50 at Aurora B and with Karpas-299 cells were 200 to 1000 nM and at most 50 nM, respectively.
Take `Cc1nn(C[C@H](O)CO)cc1-c1cnc2[nH]cc([C@H](C)c3c(OC(F)F)ccc(F)c3Cl)c2c1` [Example 71, (2S)-3-[4-(3-{(1S)-1-[2-Chloro-6-(difluoromethoxy)-3-fluorophenyl]ethyl}-1H-pyrrolo[2,3-b]pyridin-5-yl)-3-methyl-1H-pyrazol-1-yl]propane-1,2-diol]: the IC50 at Aurora B is 50 to 200 nM; with Karpas-299 cells, at most 50 nM.
In the same order, the values of `COc1ccc(F)c(Cl)c1[C@@H](C)c1c[nH]c2ncc(-c3cnn([C@H]4CC[C@@H](O)CC4)c3C)cc12` [Example 52, cis-4-(4-{3-[(1S)-1-(2-Chloro-3-fluoro-6-methoxyphenyl)ethyl]-1H-pyrrolo[2,3-b]pyridin-5-yl}-5-methyl-1H-pyrazol-1-yl)cyclohexanol] are above 1000 nM and 50 to 200 nM.
In the same order, the values of `[2H]C([2H])([2H])[C@H](c1c(OC)ccc(F)c1Cl)c1c[nH]c2ncc(-c3cnn([C@H]4CC[C@H](O)CC4)c3C)cc12` [Example 111, trans-4-(4-{3-[(1S)-1-(2-Chloro-3-fluoro-6-methoxyphenyl)(2,2,2-^2H3)ethyl]-1H-pyrrolo[2,3-b]pyridin-5-yl}-5-methyl-1H-pyrazol-1-yl)cyclohexanol] are above 1000 nM and at most 50 nM.
In the same order, the values of `COc1ccc(F)c(Cl)c1[C@@H](C)c1c[nH]c2ncc(-c3cnn([C@H]4CC[C@H](N(C)C)CC4)c3C)cc12` [Example 53, trans-4-(4-{3-[(1S)-1-(2-Chloro-3-fluoro-6-methoxyphenyl)ethyl]-1H-pyrrolo[2,3-b]pyridin-5-yl}-5-methyl-1H-pyrazol-1-yl)-N,N-dimethylcyclohexanamine] are 50 to 200 nM and at most 50 nM.
Regarding `COc1ccc(F)c(Cl)c1[C@@H](C)c1c[nH]c2ncc(-c3cn(C)nc3C#N)cc12` [Example 46, 4-{3-[(1S)-1-(2-Chloro-3-fluoro-6-methoxyphenyl)ethyl]-1H-pyrrolo[2,3-b]pyridin-5-yl}-1-methyl-1H-pyrazole-3-carbonitrile], the IC50 on Aurora B was above 1000 nM; in the test with Karpas-299 cells, 200 to 1000 nM.
As for `COc1ccc(F)c(Cl)c1[C@@H](C)c1c[nH]c2ncc(-c3cnn([C@@H]4C[C@@H](O)[C@@H](O)C4)c3C)cc12` [Example 31, (1R,2S,4S)-4-(4-{3-[(1S)-1-(2-Chloro-3-fluoro-6-methoxyphenyl)ethyl]-1H-pyrrolo[2,3-b]pyridin-5-yl}-5-methyl-1H-pyrazol-1-yl)cyclopentane-1,2-diol], the IC50 at Aurora B is above 1000 nM; in the test with Karpas-299 cells, at most 50 nM.
As for `Cc1c(-c2cnc3[nH]cc(C(C#N)c4c(Cl)ccc(F)c4Cl)c3c2)cnn1[C@H]1CC[C@H](O)CC1` (stereo partly drawn) [Example 108, (2,6-Dichloro-3-fluorophenyl){5-[1-(trans-4-hydroxycyclohexyl)-5-methyl-1H-pyrazol-4-yl]-1H-pyrrolo[2,3-b]pyridin-3-yl}acetonitrile], the figures for the IC50 at Aurora B and in the test with Karpas-299 cells were above 1000 nM and 200 to 1000 nM, respectively.
In the same order, the values of `CCc1nn(CC(C)(C)O)cc1-c1cnc2[nH]cc([C@H](C)c3c(OC(F)F)ccc(F)c3Cl)c2c1` [Example 73, 1-[4-(3-{(1S)-1-[2-Chloro-6-(difluoromethoxy)-3-fluorophenyl]ethyl}-1H-pyrrolo[2,3-b]pyridin-5-yl)-3-ethyl-1H-pyrazol-1-yl]-2-methylpropan-2-ol] are above 1000 nM and 50 to 200 nM.
The like results for `COc1ccc(F)c(Cl)c1[C@@H](C)c1c[nH]c2ncc(-c3cn(C)nc3OC)cc12` [Example 61, 3-[(1S)-1-(2-Chloro-3-fluoro-6-methoxyphenyl)ethyl]-5-(3-methoxy-1-methyl-1H-pyrazol-4-yl)-1H-pyrrolo[2,3-b]pyridine] were, in that order, above 1000 nM and 200 to 1000 nM.
With `COc1ccc(F)c(Cl)c1[C@@H](C)c1c[nH]c2ncc(-c3cnn([C@H]4CC[C@H](O)CC4)c3Cl)cc12` [Example 49, trans-4-(5-Chloro-4-{3-[(1S)-1-(2-chloro-3-fluoro-6-methoxyphenyl)ethyl]-1H-pyrrolo[2,3-b]pyridin-5-yl}-1H-pyrazol-1-yl)cyclohexanol], the concentration for half-maximal inhibition (IC50) on Aurora B was above 1000 nM; in the test with Karpas-299 cells it was 50 to 200 nM.
In the case of `COc1ccc(F)c(Cl)c1[C@@H](C)c1c[nH]c2ncc(-c3cnc(C)n3C)cc12` [Example 65, 3-[(1S)-1-(2-chloro-3-fluoro-6-methoxyphenyl)ethyl]-5-(1,2-dimethyl-1H-imidazol-5-yl)-1H-pyrrolo[2,3-b]pyridine], the IC50 at Aurora B is above 1000 nM; in the test with Karpas-299 cells it was 200 to 1000 nM.
Turning to `C[C@H](c1c(OC(F)F)ccc(F)c1Cl)c1c[nH]c2ncc(-c3cnn([C@H]4CC[C@H](O)CC4)c3F)cc12` [Example 84, trans-4-[4-(3-{(1S)-1-[2-Chloro-6-(difluoromethoxy)-3-fluorophenyl]ethyl}-1H-pyrrolo[2,3-b]pyridin-5-yl)-5-fluoro-1H-pyrazol-1-yl]cyclohexanol], the IC50 on Aurora B was 200 to 1000 nM; in the test on Karpas-299 cells, 50 to 200 nM.
Regarding `CNC(=O)[C@H]1CC[C@H](n2cc(-c3cnc4[nH]cc([C@H](C)c5c(OC)ccc(F)c5Cl)c4c3)c(C)n2)CC1` [Example 22, trans-4-(4-{3-[(1S)-1-(2-Chloro-3-fluoro-6-methoxyphenyl)ethyl]-1H-pyrrolo[2,3-b]pyridin-5-yl}-3-methyl-1H-pyrazol-1-yl)-N-methylcyclohexanecarboxamide], the values for the IC50 at Aurora B and in the test with Karpas-299 cells were 50 to 200 nM and at most 50 nM, respectively.
Turning to `CCOc1ccc(F)c(Cl)c1[C@@H](C)c1c[nH]c2ncc(-c3cnn([C@H]4CC[C@H](O)CC4)c3C)cc12` [Example 103, trans-4-(4-{3-[(1S)-1-(2-Chloro-6-ethoxy-3-fluorophenyl)ethyl]-1H-pyrrolo[2,3-b]pyridin-5-yl}-5-methyl-1H-pyrazol-1-yl)cyclohexanol], the values for the IC50 at Aurora B and in the test on Karpas-299 cells were above 1000 nM and at most 50 nM, respectively.
For the compound `Cc1c(-c2cnc3[nH]cc([C@H](C)c4c(OC(C)C)ccc(F)c4Cl)c3c2)cnn1[C@H]1CC[C@H](O)CC1` [Example 104, trans-4-[4-(3-{(1S)-1-[2-Chloro-3-fluoro-6-(propan-2-yloxy)phenyl]ethyl}-1H-pyrrolo[2,3-b]pyridin-5-yl)-5-methyl-1H-pyrazol-1-yl]cyclohexanol], the IC50 is 200 to 1000 nM on Aurora B and at most 50 nM in the test on Karpas-299 cells.
In the case of `COc1ccc(F)c(Cl)c1[C@@H](C)c1c[nH]c2ncc(-c3cnn([C@H]4CC[C@H](O)CC4)c3C)cc12` [Example 27, trans-4-(4-{3-[(1S)-1-(2-Chloro-3-fluoro-6-methoxyphenyl)ethyl]-1H-pyrrolo[2,3-b]pyridin-5-yl}-5-methyl-1H-pyrazol-1-yl)cyclohexanol], the IC50 at Aurora B was above 1000 nM; with Karpas-299 cells, at most 50 nM.
Consider `COc1ccc(F)c(Cl)c1[C@@H](C)c1c[nH]c2ncc(-c3c(C)nn([C@@H]4C[C@@H](O)[C@@H](O)C4)c3C)cc12` [Example 33, (1R,2S,4S)-4-(4-{3-[(1S)-1-(2-Chloro-3-fluoro-6-methoxyphenyl)ethyl]-1H-pyrrolo[2,3-b]pyridin-5-yl}-3,5-dimethyl-1H-pyrazol-1-yl)cyclopentane-1,2-diol], for which the IC50 at Aurora B is above 1000 nM; in the test on Karpas-299 cells it was at most 50 nM.
The like results for `COc1ccc(F)c(Cl)c1[C@@H](C)c1c[nH]c2ncc(-c3cnn(C)c3N)cc12` [Example 38, 4-{3-[(1S)-1-(2-Chloro-3-fluoro-6-methoxyphenyl)ethyl]-1H-pyrrolo[2,3-b]pyridin-5-yl}-1-methyl-1H-pyrazol-5-amine] were, in that order, 200 to 1000 nM and 50 to 200 nM.
In the same order, the values of `COc1ccc(F)c(Cl)c1[C@@H](C)c1c[nH]c2ncc(-c3cn(CC(C)(C)O)nc3C)cc12` [Example 7, 1-(4-{3-[(1S)-1-(2-Chloro-3-fluoro-6-methoxyphenyl)ethyl]-1H-pyrrolo[2,3-b]pyridin-5-yl}-3-methyl-1H-pyrazol-1-yl)-2-methylpropan-2-ol] are 200 to 1000 nM and 50 to 200 nM.
The like results for `COc1ccc(F)c(Cl)c1[C@@H](C)c1c[nH]c2ncc(-c3c[nH]nc3C)cc12` [Example 1, 3-[(1S)-1-(2-Chloro-3-fluoro-6-methoxyphenyl)ethyl]-5-(3-methyl-1H-pyrazol-4-yl)-1H-pyrrolo[2,3-b]pyridine] were, in that order, 200 to 1000 nM and 50 to 200 nM.
